Measurements as given in ChEMBL document CHEMBL5360583, “Benzo[j]fluoranthene-Derived Natural Products” (J Nat Prod, 2023).
Values after ≈ are worked out from the molar mass of the structure shown.

Experiments:
RAW264.7 = test: Anti-inflammatory activity in mouse RAW264.7 cells assessed as inhibition of NO production; assay type: functional, cell-based
[1] = Inhibition of IL-2 production in CD28-stimulated human Jurkat E6.1 cells; assay type: functional, cell-based
[2] = Inhibition of tyrosine kinase (unknown origin); set-up: species or system Homo sapiens
L929 [3] = test: Cytotoxicity against mouse L929 cells assessed as reduction in cell viability by MTT assay; assay type: functional, cell-based
Caenorhabditis elegans = test: Nematicidal activity against Caenorhabditis elegans; assay type: functional; details: read-out: LD50 (the source's name)
Bacillus subtilis = test: Antibacterial activity against Bacillus subtilis assessed as zone of inhibition by disc diffusion method; assay type: functional
Yarrowia lipolytica = test: Antifungal activity against Yarrowia lipolytica assessed as zone of inhibition; assay type: functional
Micrococcus luteus [4] = test: Antibacterial activity against Micrococcus luteus assessed as reduction in bacterial growth; assay type: functional
[5] = Cytotoxicity against BALB/c mouse Splenocyte assessed as reduction in cell viability incubated for 48 hrs by MTT assay; assay type: toxicity, cell-based; details: splenocytes
Splenocyte = test: Immunosuppressive activity in BALB/c mouse splenocyte assessed as reduction in ConA-induced mouse T-lymphocytes proliferation incubated for 48 hrs by MTT assay; assay type: functional, cell-based
Micrococcus luteus [6] = test: Antibacterial activity against Micrococcus luteus assessed as bacterial growth inhibition; assay type: functional
Enterococcus faecalis = test: Antibacterial activity against Enterococcus faecalis assessed as zone of inhibition; assay type: functional
SW480 = test: Cytotoxicity against human SW480 cells assessed as reduction in cell growth by MTT assay; assay type: functional, cell-based
Staphylococcus aureus = test: Antibacterial activity against Staphylococcus aureus assessed as zone of inhibition; assay type: functional
L929 [7] = test: Cytotoxicity against mouse L929 cells assessed as reduction in cell viability; assay type: functional, cell-based
[8] = target: Hyaluronan-binding protein 2 (Homo sapiens, UniProt Q14520); test: Inhibition of spermidine-induced human pro-PHBP autoactivation
Sequence of Hyaluronan-binding protein 2 (Q14520 24-313 limits assumed): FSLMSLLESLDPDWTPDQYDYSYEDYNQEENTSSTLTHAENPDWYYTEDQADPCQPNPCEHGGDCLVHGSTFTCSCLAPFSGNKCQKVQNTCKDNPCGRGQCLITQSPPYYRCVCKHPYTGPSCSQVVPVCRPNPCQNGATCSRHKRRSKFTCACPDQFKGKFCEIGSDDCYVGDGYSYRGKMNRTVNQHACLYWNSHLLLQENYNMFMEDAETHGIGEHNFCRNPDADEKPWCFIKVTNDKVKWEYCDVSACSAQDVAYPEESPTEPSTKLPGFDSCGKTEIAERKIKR
Sequence of Hyaluronan-binding protein 2 (Q14520 314-560 limits assumed): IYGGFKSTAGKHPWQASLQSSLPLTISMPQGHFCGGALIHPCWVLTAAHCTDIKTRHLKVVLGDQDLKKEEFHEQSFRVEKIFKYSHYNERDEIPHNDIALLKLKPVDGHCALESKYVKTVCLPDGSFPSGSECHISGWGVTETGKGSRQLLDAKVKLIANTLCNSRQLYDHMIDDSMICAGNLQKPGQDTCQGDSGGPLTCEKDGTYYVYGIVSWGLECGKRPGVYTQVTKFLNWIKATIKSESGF

Ramos = test: Antiproliferative activity against human Ramos cells assessed as reduction in cell viability measured after 24 hrs by MTT assay; assay type: functional, cell-based
Jurkat = test: Antiproliferative activity against human Jurkat cells assessed as reduction in cell viability measured after 24 hrs by MTT assay; assay type: functional, cell-based
Mucor hiemalis = test: Antifungal activity against Mucor hiemalis assessed as inhibition of fungal growth measured after 18 to 48 hrs by microbroth dilution assay; assay type: functional; details: time 18-48 hrs
[9] = Antioxidant activity assessed as DPPH radical scavenging activity at 50 uM; assay type: functional

`CO[C@H]1C[C@H](O)C2=C3c4cccc(O)c4C(=O)C[C@@H]3c3ccc(O)c1c32` [HYPOXYLONOL B] gave an IC50 (RAW264.7) of 21.1 µM.
With `COC1C(=O)c2c(O)cccc2C2=C3CCC(=O)c4c(O)ccc(c43)C21` (centres undefined) the IC50 [1] was 2.4 µM and the IC50 [2] was 0.045 µM.
For `O=C1C[C@H]2C(=C3CCC(=O)c4c(O)ccc2c43)c2cccc(O)c21`, the IC50 (L929 [3]) was 10.4 µM, the LC50 (Caenorhabditis elegans) was 100 µg/mL (≈ 314 µM) and the “inhibition zone (IZ)” value (Bacillus subtilis) was 11 mm. The “inhibition zone (IZ)” value (Yarrowia lipolytica) was 9 mm and the MIC (Micrococcus luteus [4]) was 16.7 µg/mL (≈ 52.5 µM).
For `Oc1cccc2c3c(ccc12)-c1ccc(O)c2cccc-3c12`, the IC50 at 48 h [5] was 0.22 µg/mL (≈ 0.774 µM) and the IC50 (Splenocyte) was 0.025 µg/mL (≈ 0.0879 µM).
`COc1cccc2c3c(ccc12)-c1ccc(O)c2c(O)ccc-3c12` showed an MIC (Micrococcus luteus [6]) of 8.3 µg/mL (≈ 26.4 µM).
With `O=C1C[C@H](O)[C@H]2c3c(ccc(O)c31)-c1cc(O)c3c(O)cccc3c12` the IC50 (L929 [3]) was 1.1 µM.
In the case of `O=C1C[C@@H]2[C@H]3CC[C@@H](O)c4c(O)ccc(c43)[C@]2(O)c2cccc(O)c21`, the “inhibition zone (IZ)” value (Enterococcus faecalis) is reported as 10 mm and the “inhibition zone (IZ)” value (Bacillus subtilis) is reported as 10 mm.
In the case of `O=C1C[C@@H]2[C@H]3CC[C@H](O)c4c(O)ccc(c43)[C@]2(O)c2cccc(O)c21`, the IC50 (SW480) is reported as 9.59 µM, the “inhibition zone (IZ)” value (Enterococcus faecalis) is reported as 10 mm and the “inhibition zone (IZ)” value (Staphylococcus aureus) is reported as 10 mm.
Compound `O=C1C(O)=c2c(c3cc(O)c(=O)c4c(O)ccc2c4-3)-c2cccc(O)c21` has an IC50 (L929 [7]) of 7 µM.
With `O=C1C[C@@H]2[C@@H]3CCC(=O)c4c(O)ccc(c43)[C@]2(O)c2cccc(O)c21` the LC50 (Caenorhabditis elegans) was 25 µg/mL (≈ 74.3 µM), the “inhibition zone (IZ)” value (Bacillus subtilis) was 10 mm and the “inhibition zone (IZ)” value (Yarrowia lipolytica) was 7 mm.
Work on `O=C1C(O)=c2c(c3ccc(=O)c4c(O)ccc2c4-3)-c2cccc(O)c21` yielded an IC50 [8] of 14 µM.
Compound `CO[C@@H]1[C@H](O)c2c(O)cccc2C2=C3CCC(=O)c4c(O)ccc(c43)[C@H]21` has an IC50 [1] of 0.4 µM and an IC50 [2] of 0.06 µM.
In the case of `Oc1cccc2c3c(ccc12)-c1ccc(O)c2c(O)ccc-3c12`, the MIC (Micrococcus luteus [6]) is reported as 16.7 µg/mL (≈ 55.6 µM).
In the case of `O=C1C[C@@H]2[C@H]3CCC(=O)c4c(O)ccc(c43)[C@]2(O)c2cccc(O)c21`, the “inhibition zone (IZ)” value (Bacillus subtilis) is reported as 11 mm and the “inhibition zone (IZ)” value (Staphylococcus aureus) is reported as 12 mm.
Work on `CO[C@H]1C[C@H](O)C2=C3c4cccc(O)c4C(=O)[C@@H](O)[C@@H]3C3=CC=C(O)C1C32` (some centres undefined) yielded an IC50 (RAW264.7) of 14.4 µM.
In the case of `O=C1c2c3c(cc(O)c2[C@H](O)[C@@H]2O[C@H]12)C1C=CC(O)=C2C(O)=CC=C3C21` (some centres undefined), the LC50 (Caenorhabditis elegans) is reported as 50 µg/mL (≈ 143 µM), the “inhibition zone (IZ)” value (Bacillus subtilis) is reported as 11 mm and the “inhibition zone (IZ)” value (Yarrowia lipolytica) is reported as 8 mm.
For `O=C1C[C@]2(O)C(=C3C=CC(=O)c4c(O)ccc2c43)c2cccc(O)c21`, the IC50 (Ramos) was 6.6 µM and the IC50 (Jurkat) was 14.1 µM.
For `COc1cccc2c3c(ccc12)-c1ccc(O)c2c(OC)ccc-3c12`, the MIC (Mucor hiemalis) was 4.3 µg/mL (≈ 13.1 µM).
`COC1C(O)c2c(O)cccc2C2=C3CCC(=O)c4c(O)ccc(c43)C21` (centres undefined) gave an IC50 [1] of over 5 µM and an IC50 [2] of over 5 µM.
`O=C1C[C@H]2C(=C3c4c2ccc(O)c4[C@@H](O)C[C@H]3O)c2cccc(O)c21` showed an Activity [9] of 1.74%.
In the case of `CO[C@@H]1[C@H](OC)c2c(O)cccc2C2=C3CCC(=O)c4c(O)ccc(c43)[C@H]21`, the IC50 [1] is reported as 2.5 µM and the IC50 [2] is reported as 0.76 µM.
